# Source: patent US10316017B2, “COT modulators and methods of use thereof” (Gilead Sciences, Inc., priority 2015, dated 2019)
# Like-named read-outs stand apart in the source and are kept apart here.
# Tests used:
# [1] = biological target: T1, human Cot catalytic domain (30-397 amino acids) (Homo sapiens, UniProt P41279); test: High Throughput Cot Biochemical Assay (KinEASE TR-FRET); conditions: read-out: IC50 HTRF
# T1 construct: Purified recombinant human Cot catalytic domain (30-397 amino acids) was purchased from Cama Biosciences; purchased Cama Biosciences (so in the source)
# T1 sequence (P41279 30-397): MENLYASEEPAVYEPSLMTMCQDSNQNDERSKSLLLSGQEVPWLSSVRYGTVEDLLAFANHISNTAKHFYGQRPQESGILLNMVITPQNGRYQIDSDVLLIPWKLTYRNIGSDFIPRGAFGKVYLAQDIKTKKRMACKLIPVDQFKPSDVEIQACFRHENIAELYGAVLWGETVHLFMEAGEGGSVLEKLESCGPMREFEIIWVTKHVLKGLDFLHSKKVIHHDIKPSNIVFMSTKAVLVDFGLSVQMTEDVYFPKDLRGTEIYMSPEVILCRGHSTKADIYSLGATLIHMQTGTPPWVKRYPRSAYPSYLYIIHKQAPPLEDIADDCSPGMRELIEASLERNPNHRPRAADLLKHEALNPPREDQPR
# Method in brief: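 TR-FRET (KinEASE) read-out: Eu-labelled phospho-specific antibody binds XL665-tagged STK3 peptide (1 μM) phosphorylated by 5 nM human Cot kinase domain (residues 30-397). Reaction at 400 μM ATP, pH 7.0 MOPS buffer with 10 mM MgOAc, 1 mM DTT and 0.1% DMSO.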
# [2] = test system: TNFα production in LPS-stimulated human monocytes; test: Cot Monocyte TNFα Cell Based Assay; conditions: Homo sapiens, Monocyte, read-out: EC50 TNF
# Method in brief: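 TNFα release quantified by two-antibody TR-FRET, normalised to unstimulated (0%) and LPS-stimulated (100%) wells. Cells got a 1 h compound exposure at 37° C in 0.5% DMSO before 4 h challenge with 50 pg/ml LPS, at 5,000 cells/well.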
# [3] = Cot biochemical HTRF (KinEASE TR-FRET) assay
# [4] = TNFα in LPS-stimulated human monocytes
# [5] = Cot KinEASE TR-FRET (HTRF) biochemical assay, 400 μM ATP
# [6] = Cot KinEASE TR-FRET, 400 μM ATP
# [7] = LPS-stimulated human monocytes, TNFα TR-FRET
SMILES,"IC50 [1, 3] [nM]","EC50 [2, 4] [nM]","IC50 [1, 5] [nM]","IC50 [1, 6] [nM]","EC50 [2, 7] [nM]"
"[2H][C@@](Nc1cc(Cl)c2ncc(C#N)c(NC3CC4CCC3CC4)c2c1)(c1ccc(F)cc1)c1cn(C2CC2)nn1 (stereo partly drawn) [Example 277, 4-(((1s,4s)-bicyclo[2.2.2]octan-2-yl)amino)-8-chloro-6-(((S)-(1-cyclopropyl-1H-1,2,3-triazol-4-yl)(4-fluorophenyl)methyl-d)amino)quinoline-3-carbonitrile]",–,858,32,–,–
"CC(C)(C)CNc1c(C#N)cnc2c(Br)cc(N[C@@H](c3cccc(C(=O)N4CC(F)C4)c3)c3cn(C4CC4)nn3)cc12 [Example 53, (S)-8-bromo-6-(((1-cyclopropyl-1H-1,2,3-triazol-4-yl)(3-(3-fluoroazetidine-1-carbonyl)phenyl)methyl)amino)-4-(neopentylamino) quinoline-3-carbonitrile]",–,163,5,–,–
"CC1(n2cc([C@@H](Nc3cc(Cl)c4ncc(C#N)c(N[C@H](CCC#N)c5ccccc5)c4c3)c3ccccc3Cl)nn2)CC1 [Example 72, 8-chloro-6-(((S)-(2-chlorophenyl)(1-(1-methylcyclopropyl)-1H-1,2,3-triazol-4-yl)methyl)amino)-4-(((R)-3-cyano-1-phenylpropyl)amino)quinoline-3-carbonitrile]",–,66,2,–,–
"Cc1ccc(CNc2c(C#N)cnc3c(Cl)cc(N[C@@H](c4ccc(Cl)cc4)c4cn(C5CCN(C(C)(C)C)CC5)nn4)cc23)cc1 [Example 678, (S)-6-(((1-(1-(tert-butyl)piperidin-4-yl)-1H-1,2,3-triazol-4-yl)(4-chlorophenyl)methyl)amino)-8-chloro-4-((4-methylbenzyl)amino)quinoline-3-carbonitrile]",1430,5690,–,–,–
"Cc1c(-c2ncco2)cccc1[C@H](Nc1cc(C#N)c2ncc(C#N)c(NCC(C)(C)C)c2c1)c1cn(C2(C(F)(F)F)CC2)nn1 [Example 1055, (S)-6-(((2-methyl-3-(oxazol-2-yl)phenyl)(1-(1-(trifluoromethyl)cyclopropyl)-1H-1,2,3-triazo1-4-yl)methyl)amino)-4-(neopentylamino)quinoline-3,8-dicarbonitrile]",–,–,–,3,100
"Cc1c(-c2ccn(C)n2)cccc1[C@H](Nc1cc(C#N)c2ncc(C#N)c(NCC(C)(C)C)c2c1)c1cn(C2(C(F)(F)F)CC2)nn1 [Example 1143, (S)-6-(((2-methyl-3-(1-methyl-1H-pyrazol-3-yl)phenyl)(1-(1-(trifluoromethyl)cyclopropyl)-1H-1,2,3-triazol-4-yl)methyl)amino)-4-(neopentylamino)quinoline-3,8-dicarbonitrile]",–,–,–,7,239
"CC(C)(C)CNc1c(C#N)cnc2c(Cl)cc(N[C@@H](c3cccc(-n4ccnc4)c3)c3cn(C4CC4)nn3)cc12 [Example 1032, (S)-6-(((3-(1H-imidazol-1-yl)phenyl)(1-cyclopropyl-1H-1,2,3-triazol-4-yl)methyl)amino)-8-chloro-4-(neopentylamino)quinoline-3-carbonitrile]",–,–,–,1,161
"CC(C)(C)C(=O)c1cccc([C@H](Nc2cc(Cl)c3ncc(C#N)c(Nc4ccc(F)c(Cl)c4)c3c2)c2cn(C3CCN(C(C)(C)C)CC3)nn2)c1 [Example 671, (S)-6-(((1-(1-(tert-butyl)piperidin-4-yl)-1H-1,2,3-triazol-4-yl)(3-pivaloylphenyl)methyl)amino)-8-chloro-4-((3-chloro-4-fluorophenyl)amino)quinoline-3-carbonitrile]",10,682,–,–,–
"[2H][C@](Nc1cc(Cl)c2ncc(C#N)c(N[C@H]3CCCC[C@@H]3CO)c2c1)(c1ccc(F)cc1)c1cn(C2CC2)nn1 [Example 234, 8-chloro-6-(((S)-(1-cyclopropyl-1H-1,2,3-triazol-4-yl)(4-fluorophenyl)methyl-d)amino)-4-(((1S,2S)-2-(hydroxymethyl)cyclohexyl)amino) quinoline-3-carbonitrile]",–,5630,523,–,–
"COCCNc1c(C#N)cnc2c(Cl)cc(N[C@@H](c3ccccc3)c3cn(C4CCN(C(C)(C)C)CC4)nn3)cc12 [Example 554, (S)-6-(((1-(1-(tert-butyl)piperidin-4-yl)-1H-1,2,3-triazol-4-yl)(phenyl)methyl)amino)-8-chloro-4-((2-methoxyethyl)amino)quinoline-3-carbonitrile]",1300,8250,–,–,–
"CNC(=O)c1cccc([C@H](Nc2cc(Cl)c3ncc(C#N)c(Nc4ccc(F)c(Cl)c4)c3c2)c2cn(C3CCN(C(C)(C)C)CC3)nn2)c1 [Example 690, (S)-3-((1-(1-(tert-butyl)piperidin-4-yl)-1H-1,2,3-triazol-4-yl)((8-chloro-4-((3-chloro-4-fluorophenyl)amino)-3-cyanoquinolin-6-yl)amino)methyl)-N-methylbenzamide]",2,317,–,–,–
"CC(C)(C)N1CCC(n2cc([C@@H](Nc3cc(Cl)c4ncc(C#N)c(NC5CCCCC5)c4c3)c3ccc(Cl)cc3)nn2)CC1 [Example 715, (S)-6-(((1-(1-(tert-butyl)piperidin-4-yl)-1H-1,2,3-triazol-4-yl)(4-chlorophenyl)methyl)amino)-8-chloro-4-(cyclohexylamino)quinoline-3-carbonitrile]",62,2080,–,–,–
"CCC(Nc1c(C#N)cnc2c(Cl)cc(N[C@@H](c3ccccc3)c3cn(C4CCN(C(C)(C)C)CC4)nn3)cc12)C1CCOCC1 (stereo partly drawn) [Example 508, 6-(((S)-(1-(1-(tert-butyl)piperidin-4-yl)-1H-1,2,3-triazol-4-yl)(phenyl)methyl)amino)-8-chloro-4-((1-(tetrahydro-2H-pyran-4-yl)propyl)amino)quinoline-3-carbonitrile]",5350,> 10000,–,–,–
"[2H][C@](Nc1cc(F)c2ncc(C#N)c(NC(CCC#N)c3ccccc3)c2c1)(c1ccc(F)cc1)c1cn(C2CC2)nn1 (stereo partly drawn) [Example 255, 4-((3-cyano-1-phenylpropyl)amino)-6-(((S)-(1-cyclopropyl-1H-1,2,3-triazol-4-yl)(4-fluorophenyl)methyl-d)amino)-8-fluoroquinoline-3-carbonitrile]",–,62,5,–,–

# Now from value to molecule:
"IC50 [1, 3] [nM]","EC50 [2, 4] [nM]","IC50 [1, 5] [nM]","IC50 [1, 6] [nM]","EC50 [2, 7] [nM]",SMILES
7,679,–,–,–,"N#Cc1cnc2c(Cl)cc(N[C@H](c3cn(C4CC4)nn3)c3ccccc3F)cc2c1Nc1cnc(F)c(F)c1 [Example 430, (S)-8-chloro-6-(((1-cyclopropyl-1H-1,2,3-triazol-4-yl)(2-fluorophenyl)methyl)amino)-4-((5,6-difluoropyridin-3-yl)amino)quinoline-3-carbonitrile]"
–,1200,44,–,–,"N#Cc1cnc2c(Cl)cc(N[C@@H](c3ccc(F)cc3)c3cn(C4CC4)nn3)cc2c1NCC1CCCOC1 (stereo partly drawn) [Example 348, 8-chloro-6-(((S)-(1-cyclopropyl-1H-1,2,3-triazol-4-yl)(4-fluorophenyl)methyl)amino)-4-(((tetrahydro-2H-pyran-3-yl)methyl)amino)quinoline-3-carbonitrile]"
–,333,179,–,–,"CC(C)(C)CNc1c(C#N)cnc2c(Cl)cc(N[C@@H](c3ccc(F)cc3)c3cn(-c4ccncc4)nn3)cc12 [Example 393, (S)-8-chloro-6-(((4-fluorophenyl)(1-(pyridin-4-yl)-1H-1,2,3-triazol-4-yl)methyl)amino)-4-(neopentylamino)quinoline-3-carbonitrile]"
93,2750,–,–,–,CC1(Cn2cc([C@@H](Nc3cc(Cl)c4ncc(C#N)c(Nc5cnc(F)c(F)c5)c4c3)c3ccc(F)cc3)nn2)CCC1 [Example 413]
14,807,–,–,–,"CC(C)(C)N1CCC(n2cc([C@@H](Nc3cc(Cl)c4ncc(C#N)c(Nc5cnc(F)c(F)c5)c4c3)c3ccc(Cl)cc3)nn2)CC1 [Example 660, (S)-6-(((1-(1-(tert-butyl)piperidin-4-yl)-1H-1,2,3-triazol-4-yl)(4-chlorophenyl)methyl)amino)-8-chloro-4-((5,6-difluoropyridin-3-yl)amino)quinoline-3-carbonitrile]"
–,487,56,–,–,"[2H][C@](Nc1cc(Cl)c2ncc(C#N)c(NCC(Cl)(Cl)Cl)c2c1)(c1ccc(F)cc1)c1cn(C2CC2)nn1 [Example 191, (S)-8-chloro-6-(((1-cyclopropyl-1H-1,2,3-triazol-4-yl)(4-fluorophenyl)methyl-d)amino)-4-((2,2,2-trichloroethyl)amino) quinoline-3-carbonitrile]"
191,5160,–,–,–,"N#Cc1cnc2c(Cl)cc(N[C@@H](c3ccc(F)cc3)c3c[nH]nn3)cc2c1NCC1CCOC1 (stereo partly drawn) [Example 420, 8-chloro-6-(((S)-(4-fluorophenyl)(1H-1,2,3-triazol-4-yl)methyl)amino)-4-(((tetrahydrofuran-3-yl)methyl)amino)quinoline-3-carbonitrile]"
–,276,33,–,–,"[2H][C@](Nc1cc(-c2ccc(F)nc2)c2ncc(C#N)c(NCC(C)(C)C)c2c1)(c1ccc(F)cc1)c1cn(C2CC2)nn1 [Example 139, (S)-6-(((1-cyclopropyl-1H-1,2,3-triazol-4-yl)(4-fluorophenyl)methyl-d)amino)-8-(6-fluoropyridin-3-yl)-4-(neopentylamino) quinoline-3-carbonitrile]"
3,127,–,–,–,CCN1CC2(CC(n3cc([C@@H](Nc4cc(Cl)c5ncc(C#N)c(Nc6ccc(F)c(Cl)c6)c5c4)c4ccccc4)nn3)C2)C1 [Example 774]
